For data set [1], the system named is Rattus norvegicus. Description: Antiulcer activity in sc dosed albino rat pyloric ligation model assessed as inhibition of gastric secretion administered as single dose 1 to 24 hrs prior to ligation. The following applies: Stomach. The format is functional, organism-based.
In data set [2] the test system is Rattus norvegicus. The experiment in a line: Antiulcer activity in po dosed albino rat pyloric ligation model assessed as inhibition of gastric secretion administered as single dose 1 to 24 hrs prior to ligation. The format is functional, organism-based. The settings on record: Stomach.
The subject of data set [3] is Rattus norvegicus. The experiment in a line: Antiulcer activity in albino rat pyloric ligation model assessed as inhibition of gastric volume at 100 mg/kg, po administered as single dose 1 hr prior ligation relative to control. The settings on record: Stomach. The format is functional.
For data set [4], the system named is Rattus norvegicus. Description: Antiulcer activity in albino rat pyloric ligation model assessed as elevation of gastric pH at 100 mg/kg, po administered as single dose 1 hr prior ligation (Rvb =1.1 no_unit). The format is functional, Stomach.
In data set [5] the test system is Rattus norvegicus. Description: Antiulcer activity in albino rat pyloric ligation model assessed as inhibition of total acid output at 100 mg/kg, po administered as single dose 1 hr prior ligation relative to control. In kind it is functional.
The species entered for data set [6] is Homo sapiens. The experiment in a line: Antagonist activity at histamine receptor (unknown origin) assessed as shift in histamine-induced response at 10 '-5 M relative to control.
The species named for data set [7] is Homo sapiens. Description: Antagonist activity at histamine receptor (unknown origin) assessed as shift in histamine-induced response at 5 x 10 '-5 M relative to control.
A short description of data set [8]: Toxicity in histamine-induced guinea pig assessed as change in rate of beating in right atrium at 10 ' -5 to 5 x 10' -5 M after 5 mins. The format is tissue-based, Cavia porcellus, Cardiac atrium.
For the next data set, the system named is Mus musculus. The experiment in a line: Anticholinergic activity in mouse assessed as mydriasis at 100 mg/kg, po measured after 1 to 24 hrs post dose. The format is ADME, organism-based. On the set-up: dose 100 mg/kg, route oral. The following applies: in vivo.
A short description of data set [9]: Drug excretion in rat urine administered as single dose 1 to 24 hrs prior to ligation. In kind it is ADME. The settings on record: in vivo.
Data set [10] concerns Rattus norvegicus. Description: Antiulcer activity in albino rat pyloric ligation model assessed as inhibition of gastric volume at 25 mg/kg, po administered as single dose 1 hr prior ligation relative to control. In kind it is functional. The following applies: Stomach.
The test system of data set [11] is Rattus norvegicus. The experiment in a line: Antiulcer activity in albino rat pyloric ligation model assessed as elevation of gastric pH at 50 mg/kg, po administered as single dose 1 hr prior ligation (Rvb =1.1 no_unit). In kind it is functional, Stomach.
Data set [12] has as its system Rattus norvegicus. The experiment in a line: Antiulcer activity in albino rat pyloric ligation model assessed as elevation of gastric pH at 100 mg/kg, po administered as single dose 24 hrs prior ligation (Rvb =1.1 no_unit). In kind it is functional, Stomach.
Data set [13] relates to Rattus norvegicus. The experiment in a line: Antiulcer activity in albino rat pyloric ligation model assessed as inhibition of gastric volume at 50 mg/kg, po administered as single dose 1 hr prior ligation relative to control. The format is functional. The settings on record: Stomach.
Data set [14] relates to Rattus norvegicus. Description: Antiulcer activity in albino rat pyloric ligation model assessed as elevation of gastric pH at 100 mg/kg, po administered as single dose during prior ligation (Rvb =1.1 no_unit). The format is functional, Stomach.
Data set [15] deals with Rattus norvegicus. The experiment in a line: Antiulcer activity in albino rat pyloric ligation model assessed as inhibition of total acid output at 50 mg/kg, po administered as single dose 1 hr prior ligation relative to control. The format is functional.
Data set [16] concerns Rattus norvegicus. The experiment in a line: Antiulcer activity in albino rat pyloric ligation model assessed as inhibition of total acid output at 100 mg/kg, po administered as single dose 24 hrs prior ligation relative to control. In kind it is functional.
The test system of data set [17] is Canis familiaris. Description: Antisecretory activity in beagle dog with chronic gastric fistula assessed as inhibition of histamine-induced gastric secretion at 50 mg/kg, po measured every 15 mins post histamine treatment. The following applies: Canis lupus familiaris, Stomach. In kind it is functional, organism-based. The arrangement: dose 50 mg/kg.
Data set [18] concerns Rattus norvegicus. The experiment in a line: Antiulcer activity in albino rat pyloric ligation model assessed as inhibition of gastric volume at 200 mg/kg, po administered as single dose 1 hr prior ligation relative to control. The format is functional. The settings on record: Stomach.
Data set [19] concerns Rattus norvegicus. The experiment in a line: Antiulcer activity in albino rat pyloric ligation model assessed as inhibition of gastric volume at 100 mg/kg, po administered as single dose 24 hrs prior ligation relative to control. The format is functional. The settings on record: Stomach.
Data set [20] relates to Rattus norvegicus. The experiment in a line: Antiulcer activity in albino rat pyloric ligation model assessed as inhibition of total acid output at 25 mg/kg, po administered as single dose 1 hr prior ligation relative to control. In kind it is functional.
Data set [21] concerns Rattus norvegicus. The experiment in a line: Antiulcer activity in albino rat pyloric ligation model assessed as elevation of gastric pH at 200 mg/kg, po administered as single dose 1 hr prior ligation (Rvb =1.1 no_unit). In kind it is functional, Stomach.
For data set [22], the system named is Rattus norvegicus. The experiment in a line: Antiulcer activity in albino rat pyloric ligation model assessed as inhibition of total acid output at 100 mg/kg, po administered as single dose during ligation relative to control. In kind it is functional.
In data set [23] the test system is Canis familiaris. Description: Toxicity in beagle dog at 50 mg/kg, po. On the set-up: dose 50 mg/kg, route oral. The format is organism-based, Canis lupus familiaris. The settings on record: in vivo.
Data set [24] concerns Rattus norvegicus. Description: Antiulcer activity in albino rat pyloric ligation model assessed as inhibition of total acid output at 200 mg/kg, po administered as single dose 1 hr prior ligation relative to control. The format is functional.
For data set [25], the system named is Rattus norvegicus. Description: Antiulcer activity in albino rat pyloric ligation model assessed as inhibition of gastric volume at 100 mg/kg, po administered as single dose during ligation relative to control. In kind it is functional. The following applies: Stomach.
The subject of data set [26] is Rattus norvegicus. Description: Antiulcer activity in albino rat pyloric ligation model assessed as elevation of gastric pH at 25 mg/kg, po administered as single dose 1 hr prior ligation (Rvb =1.1 no_unit). In kind it is functional, Stomach.
Data set [27] is filed under the species Rattus norvegicus. The experiment in a line: animal or person. The settings on record: po, read-out: INH.
Data set [28] concerns Rattus norvegicus. The experiment in a line: Antiulcer activity in albino rat pyloric ligation model assessed as elevation of gastric pH at 6.25 mg/kg, po administered as single dose during prior ligation (Rvb =1.1 no_unit). In kind it is functional, Stomach.
Data set [29] is filed under the species Rattus norvegicus. The experiment in a line: animal or person. The following applies: Stomach, po, read-out: INH.

The source made the active and inactive calls. The rule behind the calls is not given here.

Turning to `Cc1cc2ccccc2[nH]1`, the inhibition entry with Rattus norvegicus [1] and with Rattus norvegicus [2] was “Active” in each case.

For `CCc1c(C)c2ccccc2n1CC(N)=O`, the inhibition entry in the data set on Rattus norvegicus [1] and with Rattus norvegicus [2] was “inactive” each time.

In the case of `c1ccc2[nH]ccc2c1`, the inhibition entry in the data set with Rattus norvegicus [1] and in the data set with Rattus norvegicus [2] was “Active” throughout.

On to `Cc1c(CO)c2ccccc2n1CC(N)=O`, for which the inhibition entry in the data set on Rattus norvegicus [1] is “Active”. Besides, in the data set with Rattus norvegicus [2], the inhibition entry was “inactive”.

Turning to `Cc1c[nH]c2ccccc12`, the inhibition entry with Rattus norvegicus [1] and in the data set on Rattus norvegicus [2] was “Active” in each case.

As for `Cc1cc2ccccc2n1C`, the inhibition result in the data set on Rattus norvegicus [1] and with Rattus norvegicus [2] was “inactive” each time.

Take `CN/C(=N\CCSCc1nc[nH]c1C)NC#N` [CIMETIDINE]: the inhibition in vivo at 100 mg/kg with Rattus norvegicus [3] was 14%; in the data set with Rattus norvegicus [5], 37%. Also, in the data set with Rattus norvegicus [4], the pH is 2.1.

Consider `Cc1ccc(C)n1CC(N)=O`, for which the inhibition entry with Rattus norvegicus [1] and in the data set with Rattus norvegicus [2] was “inactive” each time.

In the case of `CCc1c(C)n(CCC(N)=O)c2ccccc12`, the inhibition result in the data set on Rattus norvegicus [1] and in the data set with Rattus norvegicus [2] was “inactive” each time.

For the compound `Cc1c(CO)n(CCC(N)=O)c2ccccc12`, the inhibition entry in the data set on Rattus norvegicus [1] and in the data set on Rattus norvegicus [2] was “inactive” throughout.

`CNC(=S)NCCSCc1[nH]cnc1C`: the fold change (FC) in the data set listed under Homo sapiens [6] was determined as 11; in the data set listed under Homo sapiens [7] it was 38.

For the compound `Cc1c(CO)c2ccccc2n1CCC(N)=O`, in the data set with Rattus norvegicus [1], the inhibition result is “Active”. Moreover, the inhibition result with Rattus norvegicus [2] is “inactive”.

For the compound `Cc1c(C)c(C)n(CCC(N)=O)c1C`, the inhibition result in the data set on Rattus norvegicus [1] and in the data set with Rattus norvegicus [2] was “inactive” throughout.

Turning to `Cc1cn(CC(N)=O)c2ccccc12`, the inhibition result in the data set with Rattus norvegicus [1] and in the data set with Rattus norvegicus [2] was “inactive” in each case.

In the case of `Cc1cn(CCC(N)=O)c2ccccc12`, the inhibition result with Rattus norvegicus [1] and in the data set with Rattus norvegicus [2] was “inactive” each time.

`Cc1[nH]c2ccccc2c1C`: the inhibition entry in the data set with Rattus norvegicus [1] and with Rattus norvegicus [2] was “Active” throughout. In addition, the Activity result (in [8]; with Mus musculus) was “Non-toxic” in each case. For the same compound, the Drug excretion result in data set [9] is “metabolite_detected”.

As for `NC(=O)Cn1ccc2ccccc21`, the inhibition entry in the data set on Rattus norvegicus [1] and with Rattus norvegicus [2] was “inactive” in each case.

As to `Cc1c(C)n(CCCC(N)=O)c2ccccc12`, the inhibition result in the data set on Rattus norvegicus [1] and in the data set with Rattus norvegicus [2] was “Active” each time.

`Cc1cc2ccccc2n1CCC(N)=O`: the inhibition entry in the data set on Rattus norvegicus [1] and in the data set with Rattus norvegicus [2] was “inactive” each time.

As for `Cc1cc2ccccc2n1CC(N)=O`, the inhibition entry with Rattus norvegicus [1] and with Rattus norvegicus [2] was “inactive” in each case.

Consider `Cc1c(C)c(C)n(CC(N)=O)c1C`, for which the inhibition result in the data set with Rattus norvegicus [1] and in the data set with Rattus norvegicus [2] was “inactive” throughout. Also, the Activity result (in data set [8]; in the data set on Mus musculus) was “Non-toxic” throughout.

In the case of `Cc1ccc(C)n1CCC(N)=O`, the inhibition entry with Rattus norvegicus [1] and in the data set on Rattus norvegicus [2] was “inactive” throughout.

On to `CCc1c(C)c2ccccc2n1CCC(N)=O`, for which the inhibition result in the data set with Rattus norvegicus [1] and with Rattus norvegicus [2] was “inactive” each time.

Consider `Cc1c(C)n(CC(N)=O)c2ccccc12`, for which the inhibition result in the data set on Rattus norvegicus [1] and in the data set with Rattus norvegicus [2] was “Active” in each case. The results for the inhibition in vivo at 25 mg/kg in the data set on Rattus norvegicus [10] and in the data set with Rattus norvegicus [20] were 26% and 47%, respectively. The pH with Rattus norvegicus [11] is listed as 3; in the data set with Rattus norvegicus [12] it was 3.2; in the data set on Rattus norvegicus [14], 1.5; in the data set with Rattus norvegicus [21], 6.7; in the data set on Rattus norvegicus [4], 6; with Rattus norvegicus [26], 2.6. Also, the inhibition in vivo at 100 mg/kg came out at 27% in the data set with Rattus norvegicus [3]; 69% in the data set with Rattus norvegicus [16]; 44% in the data set with Rattus norvegicus [19]; 52% in the data set with Rattus norvegicus [22]; 85% in the data set with Rattus norvegicus [5]; 32% in the data set on Rattus norvegicus [25]. The inhibition in vivo at 50 mg/kg was 39% in the data set with Rattus norvegicus [13] and 69% with Rattus norvegicus [15]. For the same compound, the Activity result is “Non-toxic” in data set [8], “Non-toxic” in the data set with Mus musculus and “Toxic” in the data set on Canis familiaris [23]. In addition, the outcome in the data set on Canis familiaris [17] was Active. In addition, the figures for the inhibition in vivo at 200 mg/kg in the data set with Rattus norvegicus [18] and in the data set on Rattus norvegicus [24] were 56% and 88%, respectively.

Turning to `Cc1c(CO)c2ccccc2n1CCCC(N)=O`, the inhibition result in the data set with Rattus norvegicus [1] and in the data set on Rattus norvegicus [2] was “inactive” in each case.

Turning to `CN1[C@@H]2CC[C@H]1CC(OC(=O)[C@H](CO)c1ccccc1)C2` (stereo partly drawn) [ENDO-ATROPINE], the values for the inhibition in vivo at 6.25 mg/kg in the data set listed under Rattus norvegicus [27] and in the data set listed under Rattus norvegicus [29] were 58% and 43%, respectively. Besides, the pH in the data set on Rattus norvegicus [28] is given as 1.5.

As for `CCc1c(C)n(CC(N)=O)c2ccccc12`, the inhibition entry in the data set on Rattus norvegicus [1] and in the data set on Rattus norvegicus [2] was “inactive” throughout.

Consider `Cc1c(C)n(CCC(N)=O)c2ccccc12`, for which the inhibition entry in the data set on Rattus norvegicus [1] and in the data set with Rattus norvegicus [2] was “Active” each time.

These data come from ChEMBL document CHEMBL3244210, “Experimental antiulcer drugs. 1. Indole-1-alkanamides and pyrrole-1-alkanamides” (J Med Chem, 1977).
